Values of other authors in patent US20080275015A1, “Formulation and Method for Treating Interstitial Cystitis and Related Bladder Conditions” (priority 2007, published 2008).

Details: oral prescription for interstitial cystitis; standard dosing 100 mg three times daily

## pentosan polysulfate sodium [Elmiron]
  cases in which treatment has been shown to be effective: 30%
